According to patent US4317824A, “Derivatives of quinoxaline-1,4-dioxides” (Abic, Ltd., priority 1976, dated 1982):
Converted amounts (≈) assume the structure as drawn.

What was measured:
Assay type in all cases: cell-based
[1] = tested on: Mycoplasma gallisept; assay: antimicrobial activity, minimal inhibitory concentration, Mycoplasma gallisept
Protocol: (§1) The antimicrobial activity of some compounds according to the present invention was measured and the results are shown in the following Tables. The activity is indicated as the minimal inhibitory concentration in μg/ml.

[2] = tested on: Crypt. Neof.; assay: antimicrobial activity, minimal inhibitory concentration, Crypt. Neof.
Protocol: as §1

[3] = tested on: Trichophyt. Rubrum; assay: antimicrobial activity, minimal inhibitory concentration, Trichophyt. Rubrum
Protocol: as §1

[4] = tested on: Cand. Alb.; assay: antimicrobial activity, minimal inhibitory concentration, Cand. Alb.
Protocol: as §1

[5] = tested on: Proteus; assay: antimicrobial activity, minimal inhibitory concentration, Proteus
Protocol: as §1

[6] = tested on: Staph. Aur.; assay: antimicrobial activity, minimal inhibitory concentration, Staph. Aur.
Protocol: as §1

[7] = tested on: B. Cereus; assay: antimicrobial activity, minimal inhibitory concentration, B. Cereus; conditions: Bacillus cereus
Protocol: as §1

[8] = tested on: Pseud. Aur.; assay: antimicrobial activity, minimal inhibitory concentration, Pseud. Aur.
Protocol: as §1

[9] = tested on: E. Coli; assay: antimicrobial activity, minimal inhibitory concentration, E. Coli; conditions: Escherichia coli
Protocol: as §1

[10] = tested on: Shig. Flex.; assay: antimicrobial activity, minimal inhibitory concentration, Shig. Flex.
Protocol: as §1

[11] = tested on: B. Subtilis; assay: antimicrobial activity, minimal inhibitory concentration, B. Subtilis; conditions: Bacillus subtilis
Protocol: as §1

[12] = tested on: Salm. Typh.; assay: antimicrobial activity, minimal inhibitory concentration, Salm. Typh.; conditions: read-out: minimal inhibitory concentration
Protocol: as §1

Row | Structure (SMILES) | MIC [1] [µg/mL] | MIC [2] [µg/mL] | MIC [3] [µg/mL] | MIC [4] [µg/mL] | MIC [5] [µg/mL] | MIC [6] [µg/mL] | MIC [7] [µg/mL] | MIC [8] [µg/mL] | MIC [9] [µg/mL] | MIC [10] [µg/mL] | MIC [11] [µg/mL] | MIC [12] [µg/mL]
1 | CN1CCN(NC(=NO)c2c[n+]([O-])c3ccccc3[n+]2[O-])CC1 | 2 (≈ 6.28 µM) | 10 to 25 (≈ 31.4 to 78.5 µM) | 25 (≈ 78.5 µM) | 25 (≈ 78.5 µM) | 11 to 100 (≈ 34.6 to 314 µM) | 50 (≈ 157 µM) | 50 (≈ 157 µM) | 11 to 100 (≈ 34.6 to 314 µM) | 25 (≈ 78.5 µM) |  |  | 
2 | [O-][n+]1cc(C(Cl)=NO)[n+]([O-])c2ccccc21 [Example 6, 2(α-chloro)-carboxaldoxime-quinoxaline-1,4-dioxide] | 25 to 50 (≈ 104 to 209 µM) |  | 11 to 100 (≈ 45.9 to 417 µM) |  |  | 25 (≈ 104 µM) | 25 (≈ 104 µM) |  | 25 (≈ 104 µM) | 11 to 100 (≈ 45.9 to 417 µM) | 11 to 100 (≈ 45.9 to 417 µM) | 
3 | Cc1ccc2c(c1)[n+]([O-])c(C(Cl)=NO)c[n+]2[O-] [Example 7, 2-(α-chloro)-carboxaldoxime-7-methyl-quinoxaline-1,4-dioxide] |  | 50 (≈ 197 µM) | 25 (≈ 98.6 µM) | 25 (≈ 98.6 µM) |  | 25 (≈ 98.6 µM) | 25 (≈ 98.6 µM) |  | 25 (≈ 98.6 µM) | 11 to 100 (≈ 43.4 to 394 µM) | 11 to 100 (≈ 43.4 to 394 µM) | 
4 | [O-][n+]1cc(C(Cl)=NO)[n+]([O-])c2cc(Cl)ccc21 [Example 8, 2-(α-chloro)-carboxaldoxime-7-chloro-quinoxaline-1,4-dioxide] | 10 to 25 (≈ 36.5 to 91.2 µM) |  | 11 to 100 (≈ 40.1 to 365 µM) |  |  | 25 (≈ 91.2 µM) | 10 (≈ 36.5 µM) |  | 25 (≈ 91.2 µM) | 11 to 100 (≈ 40.1 to 365 µM) | 11 to 100 (≈ 40.1 to 365 µM) | 
5 | Cc1cc2c(cc1C)[n+]([O-])c(C(Cl)=NO)c[n+]2[O-] [Example 9, 2-(α-chloro)-carboxaldoxime-6.7-dimethyl-quinoxaline-1,4-dioxide] |  |  | 11 to 100 (≈ 41.1 to 374 µM) |  |  | 11 to 100 (≈ 41.1 to 374 µM) | 11 to 100 (≈ 41.1 to 374 µM) |  | > 100 | > 100 | > 100 | > 100
6 | CCC(=O)ON=C(Cl)c1c[n+]([O-])c2ccc(Cl)cc2[n+]1[O-] [Example 10, 2-(α-chloro-0-propionyl)-carboxaldoxime-7-chloro-quinoxaline-1,4-dioxide] |  | 1 (≈ 3.03 µM) | 1 (≈ 3.03 µM) | 1 (≈ 3.03 µM) |  | 11 to 100 (≈ 33.3 to 303 µM) |  |  |  |  | 11 to 100 (≈ 33.3 to 303 µM) | 
7 | CC(=O)ON=C(Cl)c1c[n+]([O-])c2ccc(Cl)cc2[n+]1[O-] [Example 11, 2-[α-chloro-(0-acetyl)-carboxaldoxime]-7-chloro-quinoxaline-1,4-dioxide] |  | 2 (≈ 6.33 µM) | 2 (≈ 6.33 µM) | 1 (≈ 3.16 µM) |  | 11 to 100 (≈ 34.8 to 316 µM) |  |  |  | 11 to 100 (≈ 34.8 to 316 µM) | 11 to 100 (≈ 34.8 to 316 µM) | 
8 | CC(=O)ON=C(Cl)c1c[n+]([O-])c2ccc(C)cc2[n+]1[O-] [Example 12, 2-[α-chloro-(0-acetyl)-7-methyl-quinoxaline]-1,4-dioxide] |  | 10 (≈ 33.8 µM) | 1 (≈ 3.38 µM) | 10 (≈ 33.8 µM) |  |  |  |  |  | 11 to 100 (≈ 37.2 to 338 µM) | 11 to 100 (≈ 37.2 to 338 µM) | 
9 | O=C(CCl)ON=C(Cl)c1c[n+]([O-])c2ccccc2[n+]1[O-] [Example 13, 2-[α-chloro-(0-chloroacetylcarboxaldoxime)]-quinoxaline-1,4-dioxide] | 25 (≈ 79.1 µM) |  | 11 to 100 (≈ 34.8 to 316 µM) |  |  | 20 (≈ 63.3 µM) | 25 (≈ 79.1 µM) |  | 25 (≈ 79.1 µM) | 11 to 100 (≈ 34.8 to 316 µM) | 11 to 100 (≈ 34.8 to 316 µM) | 50 (≈ 158 µM)
10 | O=C(ON=C(Cl)c1c[n+]([O-])c2ccccc2[n+]1[O-])c1ccc([N+](=O)[O-])cc1 [Example 14] | 50 (≈ 129 µM) |  | 11 to 100 (≈ 28.3 to 257 µM) |  |  |  |  |  |  | 11 to 100 (≈ 28.3 to 257 µM) |  | 11 to 100 (≈ 28.3 to 257 µM)
11 | CCOC(=NO)c1c[n+]([O-])c2ccccc2[n+]1[O-] [Example 17 (ethoxy), 2-(α-ethoxy)-carboxaldoxime-quinoxaline-1,4 dioxide] |  |  |  |  |  | 10 (≈ 40.1 µM) |  |  | 11 to 100 (≈ 44.1 to 401 µM) | 11 to 100 (≈ 44.1 to 401 µM) | 11 to 100 (≈ 44.1 to 401 µM) | 11 to 100 (≈ 44.1 to 401 µM)
12 | COC(=NO)c1c[n+]([O-])c2ccccc2[n+]1[O-] [Example 17 (methoxy), 2-(α-methoxy)-carboxaldoxime-quinoxaline-1,4-dioxide] | 2 to 10 (≈ 8.5 to 42.5 µM) |  |  |  |  | 10 (≈ 42.5 µM) | 10 (≈ 42.5 µM) |  | 10 (≈ 42.5 µM) | 11 to 100 (≈ 46.8 to 425 µM) | 11 to 100 (≈ 46.8 to 425 µM) | 
